According to patent US9387220B2, “Method for inducing hepatocyte proliferation and uses thereof” (CAN-FITE BIOPHARMA LTD., priority 2007, dated 2016):
pIC50, pKi: −log10 of the molar value. Where two headings read alike, the source gives them in different places.

Tests used:
A2B adenosine receptor = molecular target: T1, A2B adenosine receptor (Homo sapiens, UniProt P29275); assay: Binding affinity to adenosine A2B receptor
T1 sequence (P29275 1-332): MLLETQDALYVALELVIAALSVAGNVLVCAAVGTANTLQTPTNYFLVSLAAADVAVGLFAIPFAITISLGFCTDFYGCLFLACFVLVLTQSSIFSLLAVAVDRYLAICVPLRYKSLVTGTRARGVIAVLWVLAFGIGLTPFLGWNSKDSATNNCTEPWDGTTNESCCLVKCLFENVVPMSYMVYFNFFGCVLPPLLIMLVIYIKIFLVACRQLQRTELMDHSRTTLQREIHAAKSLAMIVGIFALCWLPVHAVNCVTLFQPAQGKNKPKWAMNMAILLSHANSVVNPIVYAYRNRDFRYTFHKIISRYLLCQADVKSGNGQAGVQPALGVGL

liver [1] = assay: Serum levels of liver enzymes ALT and AST after partial hepatectomy with ischemia/reperfusion; type: in vivo, rat
[2] = Human studies with orally-administered Cl-IB-MECA, plasma half life; type: in vivo; settings: oral administration, read-out: half life in human plasma from peak concentration
Source text: An effective amount of an active agent may also be determined based on human PK studies. […] On the basis of said human trials twice daily administration appears to be a preferred administration regiment. […] On the basis of this human data, the administration regiment in human subjects may preferably be once or twice daily although other regiments cannot be excluded.

liver [3] = assay: Liver regeneration (liver weight) after partial hepatectomy; type: in vivo, rat; settings: rats, 24 and 48 hours after partial hepatectomy; FIG. 6
Method: Male Wistar rats (275-300 g) were fasted 12 h before the procedure. The rats were anaesthetized with Ketamin (45 mg/kg) and Xylazine (5 mg/kg). Laparatomy was performed via a sub costal, bilateral incision. The main portal pedicle to the total liver was clamped for a period of 10 minutes, during which, a 70% hepatectomy was performed. After 10 minutes of ischemia (in the course of the hepatectomy), blood flow was restored by de-clamping.
Rats underwent laparatomy and the main portal pedicle to the total liver was clamped for a period of 10 minutes, during which a 70% hepatectomy was performed. After 10 minutes of ischemia blood flow was restored by de-clamping.
Livers were collected 24 and 48 hours after the partial […]. The growth of residual liver lobes was assessed using the following equation: […]
A is the estimated total liver weight before hepatectomy (3.4% of a rat's total weight),
B is the weight of liver resected during the hepatectomy, and
C is the weight of the regenerated liver at the end of the study.

hepatocytes [4] = assay: PCNA staining of hepatocytes after partial hepatectomy; type: in vivo, rat; settings: rats, 48 hours after partial hepatectomy; FIG. 5B
hepatocytes [5] = assay: Hepatocyte proliferation of regenerated liver after partial hepatectomy; type: in vivo, rat; settings: rats, 70% hepatectomy, 100 μg/kg orally TID; control group 30%; FIG. 1
[6] = mice; cited from earlier work
[7] = oral administration; cited from earlier work

Row | pIC50 (A2B adenosine receptor; read-out: IC50) | pKi (A2B adenosine receptor; read-out: Ki) | SMILES | IC50 (A2B adenosine receptor) | Ki (A2B adenosine receptor) | ALT serum level vs control group (liver [1]; rats, 2, 4 and 48 hours after partial hepatectomy, 100 μg/kg orally TID, FIG. 2A) | AST serum level vs control group (liver [1]; rats, 2, 4 and 48 hours after partial hepatectomy, 100 μg/kg orally TID, FIG. 2B) | serum levels of liver enzymes (AST and ALT) vs vehicle and untreated rats (liver [1]; rats, partial hepatectomy, further assay, FIG. 3) | half-life [2] [h] | liver weight (% of regeneration) vs vehicle (liver [3]) | number of PCNA positive hepatocytes vs vehicle (hepatocytes [4]) | level of regeneration (hepatocyte proliferation) (hepatocytes [5]) [%] | half life [6] [h] | half life in human plasma from peak concentration [7] [h]
1 | – | – | CNC(=O)[C@H]1O[C@@H](n2cnc3c(NCc4cccc(I)c4)nc(Cl)nc32)[C@H](O)[C@@H]1O [Cl-IB-MECA, 2-chloro-N^6-(3-iodobenzyl)-adenosine-5′-N-methyl-uronamide] | No activity | No activity | significantly decreased | significantly decreased | reduction | 12 to 14 | increase | significantly increased | 45.1 | – | –
2 | 4.32 | 4.37 | CNC(=O)[C@H]1O[C@@H](n2cnc3c(NCc4cccc(I)c4)ncnc32)[C@H](O)[C@@H]1O [IB-MECA, 1-deoxy-1-{6-[({3-iodophenyl}methyl)amino]-9H-purine-9-yl}-N-methyl-β-D-ribofuranuronamide] | – | – | – | – | – | – | – | – | – | 1.5 | 8 to 10
